Data published in patent US11458189B2, “Cytoprotective drugs” (BALMES TRANSPLANTATION, priority 2017, dated 2022).
Starred links: 1 amine or outer side, 2 acyl side, 3 side chain; linkers in the order of their positions; H or OH if unused. Positions of bridges follow the written chain, without caps; N, C: chain ends. Non-standard residues stand in square brackets, D forms with d. Residues, ends and D or L forms follow the SMILES beside them. *: point of attachment. hTyr(3S-OH,4S-OH,3'-OSO3H) = N[C@H](C(=O)O)[C@H](O)[C@@H](O)c1ccc(O)c(OS(=O)(=O)O)c1; Orn(4R-OH,5R-OH) = O=C([C@H](C[C@@H](O)[C@@H](O)N[*:3])N[*:1])[*:2]; Pro(3S-OH,4S-Me) = C[C@H]1CN[C@H](C(=O)O)[C@H]1O; X1 = CCCCCOc1ccc(-c2cc(-c3ccc(C(=O)*)cc3)no2)cc1; Gln(3R-OH) = NC(=O)C[C@@H](O)[C@H](N)C(=O)O; Hyp = O=C(O)[C@@H]1C[C@@H](O)CN1

Tested on: Human Cardiac Microvascular Endothelial Cells (HCMEC)
Assay: Oxygen and glucose deprivation followed by replenishment, cell survival (calcein AM), HCMEC
Type: cell-based
Procedure: Anidulafungin and micafungin were tested on Human Renal Glomerular Endothelial Cells (HRGEC, Innoprot P10665), on Human Renal Proximal Tubular Epithelial Cells (HRPTEpiC, Innoprot P10662), on Human Astrocytes (HA, caltag SC-1800), on Human Cardiac Microvascular Endothelial Cells (HCMEC, Caltag SC-6000), on Human Hepatic Sinusoidal Endothelial Cells (HHSEC, Caltag SC-5000), on Rat Primary Kidney Glomerular Endothelial cells (Cellbiologics, RN-6014G) and on Bovine Brain Microvascular Endothelial Cells (BBMEC, Caltag SC-B100).
In a first phase, these isolated, purified and cryopreserved cells are thawed and multiplied according to the supplier's recommendations in T75 or T175 flasks pre-coated with 2 μg of fibronectin/[…] (CORNING) for HRGEC, HCMEC, HHSEC and BBMEC, or 2 μg poly-L-lysin/cm^2 (Caltag SC-0403) for HRPTEpiC and HA, or 15 mL/flask 175 cm^2 gelatin-based solution (Cellbiologics) in the presence of endothelial cell supplemented growth medium ECM (P60104, INNOPROT, Caltag, SC-1001) for HRGEC, HCMEC, HHSEC, RPKGEC or BBMEC, or astrocyte cell supplemented growth medium AM (Caltag SC-1801) for HA or epithelial cell supplemented growth medium EpiCM (P60106, INNOPROT) for HRPTEpiC, at 37° C. under 5% CO2 and saturated humidity until their confluency. They are then harvested by trypsinization according to the method described by the supplier for exactly 5 minutes and then reseeded in new flasks a maximum of three times.
To carry out the oxygen and glucose deprivation test followed by their replenishment, the cells will be seeded in 96-well black plates with transparent flat bottom (GREINER). Once a sufficient number of cells has been obtained to allow seeding of 2000 to 15000 cells per well of 96-well plates depending on the cell type, the cells are seeded in these 96-well plates previously coated with an extracellular matrix as listed above for the flasks. The cells are cultured for 5 to 8 days according to the cell type, in the presence of the same growth medium as in the flask as described above except for HRGEC and HRPTEpiC for which DMEM (DUTSCHER) with 1 g/L of supplemented glucose is used, at 37° C. under 5% CO2 and saturated humidity to obtain confluency.
On the first day of oxygen and glucose deprivation, (5th, 6th, 7th or 8th day of culture), the culture conditions are drastically changed. The medium of all plates is removed and replaced by DMEM (DUTSCHER) medium without glucose and supplemented only with 1% penicillin-streptomycin (DUTSCHER). Anidulafungin or micafungin dissolved in dimethyl sulfoxide (DMSO) is then added to each well at the desired concentration, resulting in a maximum of 1% DMSO, and the plates are placed under hypoxia at <1% 02 and 5% CO2 at 37° C. for 24 hours of culture. Each compound was tested in a concentration range.
After 24 hours, the growth medium is changed and replaced by a richer medium, DMEM (DUTSCHER) at 1 g/L glucose and 2% FBS (INNOPROT) and 1% penicillin-streptomycin (DUTSCHER). These media will have been pre-equilibrated at 37° C. in advance. The cells are then returned to culture at 37° C. under 20% 02 and 5% CO2 for 22h.
After 22 hours of reoxygenation, the potential protective effect of anidulafungin or micafungin is measured by a cell viability test using calcein AM (CORNING), which is a dye substrate. The calcein AM can easily cross the cell membrane of the viable cells. The AM ester groups mask the part of the molecule that chelates calcium. Once inside the cells, the (non-fluorescent) calcein AM is hydrolyzed to (fluorescent) calcein by endogenous esterases. The resulting calcein molecule binds to calcium inside the cell and remains trapped inside the cell. These molecules emit strong green fluorescence when subjected to […] of a particular wavelength (495 nm). Since dead cells lack esterase activity, only living cells are labelled.
This cell viability test is performed in two steps. […]

SMILES: CCCCCOc1ccc(-c2cc(-c3ccc(C(=O)N[C@H]4C[C@@H](O)[C@@H](O)NC(=O)[C@@H]5[C@@H](O)[C@@H](C)CN5C(=O)[C@H]([C@H](O)CC(N)=O)NC(=O)[C@H]([C@H](O)[C@@H](O)c5ccc(O)c(OS(=O)(=O)O)c5)NC(=O)[C@@H]5C[C@@H](O)CN5C(=O)[C@H]([C@@H](C)O)NC4=O)cc3)no2)cc1 [Micafungin, {5-[(1S,2S)-2-[(3S,6S,9S,11R,15S,18S,20R,21R,24S,25S,26S)-3-[(1R)-2-carbamoyl-1-hydroxyethyl]-11,20,21,25-tetrahydroxy-15-[(1R)-1-hydroxyethyl]-26-methyl-2,5,8,14,17,23-hexaoxo-18-[(4-{5-[4-(pentyloxy)phenyl]-1,2-oxazol-3-yl}benzene)amido]-1,4,7,13,16,22-hexaazatricyclo[22.3.0.0]heptacosan-6-yl]-1,2-dihydroxyethyl]-2-hydroxyphenyl}oxidanesulfonic acid] (X1-[Orn(4R-OH,5R-OH)]T[Hyp][hTyr(3S-OH,4S-OH,3'-OSO3H)][Gln(3R-OH)][Pro(3S-OH,4S-Me)]; lactam 1-C)
- Globalfluo assay 1 ([Micafungin] log μM 0): 4455401 arbitrary units
- Globalfluo assay 2 ([Micafungin] log μM 0): 4660836 arbitrary units
- Globalfluo assay 3 ([Micafungin] log μM 0): 4639734 arbitrary units
- Mean globalfluo ([Micafungin] log μM 0): 4585324 arbitrary units
- Survival rate (%) ([Micafungin] log μM 0): −3%
- Globalfluo assay 1 ([Micafungin] log μM 0.4771213): 5103911 arbitrary units
- Globalfluo assay 2 ([Micafungin] log μM 0.4771213): 5348145 arbitrary units
- Globalfluo assay 3 ([Micafungin] log μM 0.4771213): 4886218 arbitrary units
- Mean globalfluo ([Micafungin] log μM 0.4771213): 5112758 arbitrary units
- Survival rate (%) ([Micafungin] log μM 0.4771213): 0%
- Globalfluo assay 1 ([Micafungin] log μM 0.7781513): 5452718 arbitrary units
- Globalfluo assay 2 ([Micafungin] log μM 0.7781513): 4992821 arbitrary units
- Globalfluo assay 3 ([Micafungin] log μM 0.7781513): 6254079 arbitrary units
- Mean globalfluo ([Micafungin] log μM 0.7781513): 5566539 arbitrary units
- Survival rate (%) ([Micafungin] log μM 0.7781513): 3%
- Globalfluo assay 1 ([Micafungin] log μM 0.90309): 5299685 arbitrary units
- Globalfluo assay 2 ([Micafungin] log μM 0.90309): 5787047 arbitrary units
- Globalfluo assay 3 ([Micafungin] log μM 0.90309): 5397439 arbitrary units
- Mean globalfluo ([Micafungin] log μM 0.90309): 5494724 arbitrary units
- Survival rate (%) ([Micafungin] log μM 0.90309): 3%
- Globalfluo assay 1 ([Micafungin] log μM 1): 5522064 arbitrary units
- Globalfluo assay 2 ([Micafungin] log μM 1): 5305822 arbitrary units
- Globalfluo assay 3 ([Micafungin] log μM 1): 6090892 arbitrary units
- Mean globalfluo ([Micafungin] log μM 1): 5639593 arbitrary units
- Survival rate (%) ([Micafungin] log μM 1): 3%
- Globalfluo assay 1 ([Micafungin] log μM 1.079181): 5365305 arbitrary units
- Globalfluo assay 2 ([Micafungin] log μM 1.079181): 5914359 arbitrary units
- Globalfluo assay 3 ([Micafungin] log μM 1.079181): 4948085 arbitrary units
- Mean globalfluo ([Micafungin] log μM 1.079181): 5409250 arbitrary units
- Survival rate (%) ([Micafungin] log μM 1.079181): 2%
- Globalfluo assay 1 ([Micafungin] log μM 1.176091): 5886475 arbitrary units
- Globalfluo assay 2 ([Micafungin] log μM 1.176091): 5800515 arbitrary units
- Globalfluo assay 3 ([Micafungin] log μM 1.176091): 6203727 arbitrary units
- Mean globalfluo ([Micafungin] log μM 1.176091): 5963572 arbitrary units
- Survival rate (%) ([Micafungin] log μM 1.176091): 5%
- Globalfluo assay 1 ([Micafungin] log μM 1.30103): 6537106 arbitrary units
- Globalfluo assay 2 ([Micafungin] log μM 1.30103): 5661218 arbitrary units
- Globalfluo assay 3 ([Micafungin] log μM 1.30103): 6414894 arbitrary units
- Mean globalfluo ([Micafungin] log μM 1.30103): 6204406 arbitrary units
- Survival rate (%) ([Micafungin] log μM 1.30103): 7%
- Globalfluo assay 1 ([Micafungin] log μM 1.477121): 5692141 arbitrary units
- Globalfluo assay 2 ([Micafungin] log μM 1.477121): 6434487 arbitrary units
- Globalfluo assay 3 ([Micafungin] log μM 1.477121): 7272557 arbitrary units
- Mean globalfluo ([Micafungin] log μM 1.477121): 6466395 arbitrary units
- Survival rate (%) ([Micafungin] log μM 1.477121): 8%
- Globalfluo assay 1 ([Micafungin] log μM −0.5228788): 4445501 arbitrary units
- Globalfluo assay 2 ([Micafungin] log μM −0.5228788): 5528681 arbitrary units
- Globalfluo assay 3 ([Micafungin] log μM −0.5228788): 4443191 arbitrary units
- Mean globalfluo ([Micafungin] log μM −0.5228788): 4805791 arbitrary units
- Survival rate (%) ([Micafungin] log μM −0.5228788): −1%
- Globalfluo assay 1 ([Micafungin] log μM −1): 4527783 arbitrary units
- Globalfluo assay 2 ([Micafungin] log μM −1): 4062591 arbitrary units
- Globalfluo assay 3 ([Micafungin] log μM −1): 5413646 arbitrary units
- Mean globalfluo ([Micafungin] log μM −1): 4668007 arbitrary units
- Survival rate (%) ([Micafungin] log μM −1): −2%
- Globalfluo assay 1 ([Micafungin] log μM −2): 4648220 arbitrary units
- Globalfluo assay 2 ([Micafungin] log μM −2): 3959524 arbitrary units
- Globalfluo assay 3 ([Micafungin] log μM −2): 4368024 arbitrary units
- Mean globalfluo ([Micafungin] log μM −2): 4325256 arbitrary units
- Survival rate (%) ([Micafungin] log μM −2): −4%
